# Several values for one entry are separate records, joined by “and”; a condition that tells them apart may be missing. Equal entries are not always repeated. Positions of bridges follow the written chain, without caps; N, C: chain ends. Non-standard residues stand in square brackets, D forms with d. Residues, ends and D or L forms follow the SMILES beside them. *: point of attachment. Ileψ(thiazoline)Cys = CC[C@H](C)[C@H](N)C1=N[C@H](C(=O)*)CS1; dOrn = NCCC[C@@H](N)C(=O)O
# Assays:
# [1] = tested on: Eimeria acervulina Strain 59 And E. tenella Strain 155; assay: anticoccidial feed test in infected chickens, ionophore-sensitive strains; type: in vivo; conditions: A82810 0 ppm
# [2] = tested on: Eimeria maxima Strain FS-177; assay: anticoccidial feed test in infected chickens, ionophore-sensitive strain; type: in vivo; conditions: A82810 0 ppm
# [3] = tested on: Eimeria acervulina Strain FS-316 And E. tenella Strain FS-456; assay: anticoccidial feed test in infected chickens, ionophore-resistant strains; type: in vivo; conditions: A82810 0 ppm
# [4] = tested on: E. acervulina Strain FS-316; assay: anticoccidial feed test in infected chickens, ionophore-resistant strain; type: in vivo; conditions: Table X, A82810 0 ppm
# [5] = tested on: E. maxima Strain LIT-626; assay: as above; type: in vivo; conditions: Table XIII; A82810 0 ppm; Benzeneamine ppm r4-r7: 8,10,12,14
# [6] = tested on: Eimeria maxima Strain FS-410; assay: as above; type: in vivo; conditions: A82810 0 ppm
# [7] = tested on: Eimeria acervulina H & C and Eimeria tenella Wis; assay: anticoccidial feed test in infected chickens, ionophore-sensitive strains; type: in vivo; conditions: Table XIX, A82810 0 ppm
# [8] = tested on: Eimeria acervulina Strain FS-273 and E. tenella Strain FS-456; assay: anticoccidial feed test in infected chickens, ionophore-resistant strains; type: in vivo; conditions: Table XX, A82810 0 ppm
# [9] = tested on: culture A82810.1 (Actinomadura fibrosa sp. nov. NRRL 18348); assay: antibiotic sensitivity disc test on seeded ISP No. 2 agar; type: cell-based; parameters: key to Resistance to: (A82810.1): Resistance was scored as (+) when no zone of inhibition was observed; (-) when a zone of inhibition was observed; conditions: for resistance / sensitivity of culture A82810.1 to the antibiotic: cephalothin 30 µg, lincomycin 2 µg, penicillin G 10 units, rifampin 5 µg, lysozyme 50 µg/mL, bacitracin 10 units, gentamicin 10 µg, neomycin 30 µg, oleandomycin 15 µg, streptomycin 10 µg, tetracycline 30 µg, tobramycin 10 µg, vancomycin 30 µg; for Resistance to: (A82810.1): Oleandomycin 16 µg, Penicillin G 10 units
# Description: (§1) Resistance to antibiotics was measured by padding antibiotic sensitivity discs onto the surface of seeded ISP No. 2 agar plates. Resistance was scored as (+) when no zone of inhibition was observed and as (-) when a zone of inhibition was observed.
# [10] = tested on: A. verrucosospora; assay: antibiotic sensitivity disc test (species comparison); type: cell-based; parameters: key: Resistance was scored as (+) when no zone of inhibition was observed; (-) when a zone of inhibition was observed; conditions: Oleandomycin 16 µg; Penicillin G 10 units
# Description: as §1
# [11] = Benzeneamine ppm r4-r6: 8,12,16
# [12] = Benzeneamine ppm r10-r12: 8,12,16
compound,measurement,setting,value
"O=[N+]([O-])c1cc([N+](=O)[O-])c(Nc2ccc(Br)c3ccccc23)c(C(F)(F)F)c1 [4-Bromo-N-[2,4-dinitro-6-trifluoromethyl)phenyl]-1-naphthaleneamine]","WEIGHT GAIN, PERCENT OF CONTROL","[1]; Table XXIV, 4-Bromo naphthaleneamine ppm r4-r7: 4,8,12,16",73% OF CONTROL and 66% OF CONTROL and 72% OF CONTROL and 67% OF CONTROL
same,AVERAGE INTESTINAL LESION SCORES,"[1]; Table XXIV, 4-Bromo naphthaleneamine ppm r11-r14: 4,8,12,16",6.2 and 6.9 and 6.6 and 3.8
same,AVERAGE CECAL LESION SCORES,"[1]; Table XXIV, 4-Bromo naphthaleneamine ppm r18-r21: 4,8,12,16",2.9 and 3.5 and 3.0
"O=[N+]([O-])c1cc([N+](=O)[O-])c(Nc2ccc(Cl)c3ccccc23)c(C(F)(F)F)c1 [4-chloro-N-[2,4-dinitro-6-(trifluoromethyl)phenyl]-1-naphthaleneamine]","WEIGHT GAIN, PERCENT OF CONTROL","[1]; Table XXII, 4-chloro naphthaleneamine ppm r11-r14: 4,8,12,16",80% OF CONTROL and 78% OF CONTROL and 92% OF CONTROL
same,"WEIGHT GAIN, PERCENT OF CONTROL","[2]; Table XXIII, 4-chloro naphthaleneamine ppm r11-r14: 4,8,12,16",87% OF CONTROL and 80% OF CONTROL and 85% OF CONTROL and 84% OF CONTROL
"O=[N+]([O-])c1cc([N+](=O)[O-])c(Nc2ccc(OC(F)(F)C(F)F)cc2)c(C(F)(F)F)c1 [Benzeneamine, 2,4-Dinitro-N-[4-(1,1,2,2-tetrafluoroethoxy)phenyl]-6-(trifluoromethyl)benzeneamine]",TOTAL LESION SCORE,"[1]; Table VI, Benzeneamine ppm r4-r7: 4,8,12,16",12.4 and 10.9 and 10.4 and 10.8
same,"WEIGHT GAIN, PERCENT OF CONTROL","[1]; Table VI, Benzeneamine ppm r11-r14: 4,8,12,16",75% OF CONTROL and 68% OF CONTROL and 73% OF CONTROL and 76% OF CONTROL
same,"WEIGHT GAIN, PERCENT OF CONTROL","[3]; Table IX, Benzeneamine ppm r4-r8: 16,18,20,22,24",91% OF CONTROL and 84% OF CONTROL and 88% OF CONTROL and 85% OF CONTROL
same,AVERAGE CECAL LESION SCORES,"[3]; Table IX, Benzeneamine ppm r20-r24: 16,18,20,22,24",2.9 and 3.0 and 2.6 and 1.6
same,"WEIGHT GAIN, PERCENT OF CONTROL","[3]; Table VII, Benzeneamine ppm r11-r14: 4,8,12,16",90% OF CONTROL and 94% OF CONTROL and 88% OF CONTROL and 87% OF CONTROL
same,"WEIGHT GAIN, PERCENT OF CONTROL","[3]; Table VIII, Benzeneamine ppm r4-r7: 8,10,12,14",76% OF CONTROL and 77% OF CONTROL and 75% OF CONTROL and 70% OF CONTROL
same,AVERAGE INTESTINAL LESION SCORES,"[3]; Table VIII, Benzeneamine ppm r11-r14: 8,10,12,14",5.9 and 4.8 and 4.5
same,AVERAGE CECAL LESION SCORES,"[3]; Table VIII, Benzeneamine ppm r18-r21: 8,10,12,14",3.3 and 3.2 and 3.1 and 2.8
same,"WEIGHT GAIN, PERCENT OF CONTROL","[4]; Benzeneamine ppm r4-r7: 4,8,12,16",74% OF CONTROL and 71% OF CONTROL and 82% OF CONTROL and 75% OF CONTROL
same,AVERAGE INTESTINAL LESION SCORES,"[4]; Benzeneamine ppm r11-r14: 4,8,12,16",6.9 and 8.4 and 6.3 and 5.8
same,INTESTINAL LESION SCORE,"[2]; Table XI, Benzeneamine ppm r4-r6: 8,12,16",3.6 and 3.9 and 3.3
same,"WEIGHT GAIN, PERCENT OF CONTROL","[2]; Table XI, Benzeneamine ppm r10-r12: 8,12,16",77% OF CONTROL and 84% OF CONTROL and 87% OF CONTROL
same,AVERAGE INTESTINAL LESION SCORES,"[2]; Table XII, Benzeneamine ppm r4-r6: 8,12,16",2.6 and 2.2 and 2.3
same,"WEIGHT GAIN, PERCENT OF CONTROL","[2]; Table XII, Benzeneamine ppm r10-r12: 8,12,16",79% OF CONTROL and 88% OF CONTROL and 102% OF CONTROL
same,"WEIGHT GAIN, PERCENT OF CONTROL",[5],94% OF CONTROL and 99% OF CONTROL and 93% OF CONTROL and 98% OF CONTROL
same,"WEIGHT GAIN, PERCENT OF CONTROL","[6]; Table XIV, Benzeneamine ppm r4-r7: 8,10,12,14",90% OF CONTROL and 88% OF CONTROL and 92% OF CONTROL
same,AVERAGE INTESTINAL LESION SCORES,"[6]; Table XIV, Benzeneamine ppm r11-r14: 8,10,12,14",3.8 and 3.7 and 3.3
same,"WEIGHT GAIN, PERCENT OF CONTROL","[6]; Table XV, Benzeneamine ppm r4-r7: 9,10,11,12",90% OF CONTROL and 94% OF CONTROL and 87% OF CONTROL and 84% OF CONTROL
same,AVERAGE INTESTINAL LESION SCORES,"[6]; Table XV, Benzeneamine ppm r11-r14: 9,10,11,12",4.0 and 3.8 and 3.7
same,"WEIGHT GAIN, PERCENT OF CONTROL","[6]; Table XVI, Benzeneamine ppm r4-r8: 16,18,20,22,24",71% OF CONTROL and 76% OF CONTROL and 81% OF CONTROL and 79% OF CONTROL and 83% OF CONTROL
same,AVERAGE INTESTINAL LESION SCORES,"[6]; Table XVI, Benzeneamine ppm r12-r16: 16,18,20,22,24",4.0 and 3.1 and 3.4 and 3.7 and 2.6
same,LESION SCORE,"[6]; Table XVII, Benzeneamine ppm r4-r6: 8,12,16",3.3 and 2.9 and 2.4
same,"WEIGHT GAIN, PERCENT OF CONTROL","[6]; Table XVII, Benzeneamine ppm r10-r12: 8,12,16",68% OF CONTROL and 59% OF CONTROL and 74% OF CONTROL
same,INTESTINAL LESION SCORE,"[6]; Table XVIII, Benzeneamine ppm r4-r6: 8,12,16",4.0 and 3.9 and 3.3
same,"WEIGHT GAIN, PERCENT OF CONTROL","[6]; Table XVIII, Benzeneamine ppm r10-r12: 8,12,16",91% OF CONTROL and 95% OF CONTROL and 93% OF CONTROL
same,AVERAGE INTESTINAL LESION SCORES,[7]; [11],6.0 and 5.1 and 4.7
same,"WEIGHT GAIN, PERCENT OF CONTROL",[7]; [12],62% OF CONTROL and 64% OF CONTROL and 69% OF CONTROL
same,LESION SCORE,[8]; [11],9.4 and 8.4 and 8.0
same,"WEIGHT GAIN, PERCENT OF CONTROL",[8]; [12],70% OF CONTROL and 72% OF CONTROL and 74% OF CONTROL
same,PERCENT REDUCTION IN OOCYST PRODUCTION,"[8]; Benzeneamine ppm r16-r18: 8,12,16",17% and 18% and 20%
CC[C@H](C)[C@H](N)C1=N[C@H](C(=O)N[C@@H](CC(C)C)C(=O)N[C@H](CCC(=O)O)C(=O)N[C@H](C(=O)N[C@H]2CCCCNC(=O)[C@H](CC(N)=O)NC(=O)[C@@H](CC(=O)O)NC(=O)[C@H](Cc3cnc[nH]3)NC(=O)[C@@H](Cc3ccccc3)NC(=O)[C@H]([C@@H](C)CC)NC(=O)[C@@H](CCCN)NC2=O)[C@@H](C)CC)CS1 [bacitracin] ({Ileψ(thiazoline)Cys}-L[dE]IK[dOrn]I[dF]H[dD]N; lactam 4-C),resistance / sensitivity of culture A82810.1 to the antibiotic,[9],sensitive
CC(=O)OCC1=C(C(=O)O)N2C(=O)[C@@H](NC(=O)Cc3cccs3)[C@H]2SC1 [cephalothin],resistance / sensitivity of culture A82810.1 to the antibiotic,[9],resistant
CCC[C@@H]1C[C@@H](C(=O)N[C@@H]([C@H]2O[C@H](SC)[C@H](O)[C@@H](O)[C@H]2O)[C@@H](C)O)N(C)C1 [lincomycin],resistance / sensitivity of culture A82810.1 to the antibiotic,[9],resistant
CO[C@H]1C[C@H](O[C@H]2[C@H](C)[C@@H](O[C@@H]3O[C@H](C)C[C@H](N(C)C)[C@H]3O)[C@@H](C)C[C@@]3(CO3)C(=O)[C@H](C)[C@@H](O)[C@@H](C)[C@@H](C)OC(=O)[C@@H]2C)O[C@@H](C)[C@@H]1O [oleandomycin],Resistance to: (A82810.1),[9],-
same,resistance / sensitivity of culture A82810.1 to the antibiotic,[9],sensitive
same,Resistance to: (A. verrucosospora),[10],+
CC1(C)S[C@@H]2[C@H](NC(=O)Cc3ccccc3)C(=O)N2[C@H]1C(=O)O [penicillin G],Resistance to: (A82810.1),[9],+
same,resistance / sensitivity of culture A82810.1 to the antibiotic,[9],resistant
same,Resistance to: (A. verrucosospora),[10],-
CO[C@H]1/C=C/O[C@@]2(C)Oc3c(C)c(O)c4c(O)c(c(/C=N/N5CCN(C)CC5)c(O)c4c3C2=O)NC(=O)/C(C)=C\C=C\[C@H](C)[C@H](O)[C@@H](C)[C@@H](O)[C@@H](C)[C@H](OC(C)=O)[C@@H]1C [rifampin],resistance / sensitivity of culture A82810.1 to the antibiotic,[9],resistant
[H]/N=C(/N)N[C@H]1[C@H](O)[C@@H](O)[C@H](O[C@@H]2O[C@@H](C)[C@](O)(C=O)[C@H]2O[C@@H]2O[C@@H](CO)[C@H](O)[C@@H](O)[C@@H]2NC)[C@@H](N/C(N)=N\[H])[C@@H]1O [streptomycin],resistance / sensitivity of culture A82810.1 to the antibiotic,[9],sensitive
NC[C@H]1O[C@H](O[C@H]2[C@H](O)[C@@H](O[C@H]3O[C@H](CO)[C@@H](O)[C@H](N)[C@H]3O)[C@H](N)C[C@@H]2N)[C@H](N)C[C@@H]1O [tobramycin],resistance / sensitivity of culture A82810.1 to the antibiotic,[9],sensitive
CN[C@H](CC(C)C)C(=O)N[C@H]1C(=O)N[C@@H](CC(N)=O)C(=O)N[C@H]2C(=O)N[C@H]3C(=O)N[C@H](C(=O)N[C@H](C(=O)O)c4cc(O)cc(O)c4-c4cc3ccc4O)[C@H](O)c3ccc(c(Cl)c3)Oc3cc2cc(c3O[C@@H]2O[C@H](CO)[C@@H](O)[C@H](O)[C@H]2O[C@H]2C[C@](C)(N)[C@H](O)[C@H](C)O2)Oc2ccc(cc2Cl)[C@H]1O [vancomycin],resistance / sensitivity of culture A82810.1 to the antibiotic,[9],sensitive
gentamicin,resistance / sensitivity of culture A82810.1 to the antibiotic,[9],sensitive
neomycin,resistance / sensitivity of culture A82810.1 to the antibiotic,[9],sensitive
